Consider 39 molecules from patent US11504367B2, “Compounds and methods for treating oxalate-related diseases” (OxaluRx, Inc., priority 2019, dated 2022).

pIC50: −log10 of the molar value.

The experiment deals with recombinant full-length human hydroxyacid oxidase 1 (HAO1), the equivalents of hGOX (Homo sapiens (Human), UniProt Q9UJM8). Kind of experiment: In-vitro human glycolate oxidase (hGOX) assay (Amplex red fluorescence). It is filed as biochemical. To be noted: 6 nM recombinant human GO, 85 μM glycolate, 10 min preincubation. As to the method: The in-vitro glycolate oxidase assay was performed using recombinant full-length human hydroxyacid oxidase 1 (HAO1), the equivalents of hGOX. […] Purified HAO1 was dissolved in assay buffer consisting of 10 mM NaCl, 110 mM KCl, 2 mM MgCl2, 50 mM HEPES (pH 7.4), and 0.01% Triton™ X-100.
Chain of recombinant full-length human hydroxyacid oxidase 1 (HAO1), the equivalents of hGOX (Q9UJM8 whole entry): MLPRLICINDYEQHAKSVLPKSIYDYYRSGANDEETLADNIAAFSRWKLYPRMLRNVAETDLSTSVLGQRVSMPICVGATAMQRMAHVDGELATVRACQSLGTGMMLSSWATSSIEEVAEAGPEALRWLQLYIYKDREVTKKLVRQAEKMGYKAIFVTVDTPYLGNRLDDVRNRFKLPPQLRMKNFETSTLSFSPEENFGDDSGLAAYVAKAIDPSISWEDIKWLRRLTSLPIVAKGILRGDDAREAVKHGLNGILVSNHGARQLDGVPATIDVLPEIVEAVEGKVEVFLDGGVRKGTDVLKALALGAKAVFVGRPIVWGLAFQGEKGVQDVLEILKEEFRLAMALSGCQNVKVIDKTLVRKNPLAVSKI
The plates were incubated for 10 min at room temperature, at which point Amplex red reagent (50 μM) was added.
The fluorescence intensity signal was measured on a VariosKan LUX instrument using an excitation of 560 nm and an emission of 590 nm. The IC50 values were calculated using Graphpad Prism. The fluorescence signal of wells containing only DMSO was defined as 100% GO activity, while the fluorescence signal without the glycolate substrate was defined as 0% GO activity.
For `CS(=O)(=O)c1cccc(C#Cc2cc(F)cc(Oc3[nH]nnc3C(=O)O)c2)c1` [Example 275, 5-(3-Fluoro-5-(2-(3-(methylsulfonyl)phenyl)ethynyl)phenoxy)-1H-1,2,3-triazole-4-carboxylic Acid], the pIC50 is 8.52.
Next, `N#Cc1ccc(C#Cc2cc(F)cc(Oc3[nH]nnc3C(=O)O)c2)cc1` [Example 276, 4-(3-((4-Cyanophenyl)ethynyl)-5-fluorophenoxy)-1H-1,2,3-triazole-5-carboxylic Acid]: 8.52; `N#Cc1cccc(C#Cc2cc(F)cc(Oc3[nH]nnc3C(=O)O)c2)c1` [Example 277, 4-(3-((3-Cyanophenyl)ethynyl)-5-fluorophenoxy)-1H-1,2,3-triazole-5-carboxylic Acid]: 8.70.
As to `O=C(O)c1nn[nH]c1Oc1ccc(C#Cc2cccc(F)c2)cc1` [Example 278, 5-(4-(2-(3-Fluorophenyl)ethynyl)phenoxy)-1H-1,2,3-triazole-4-carboxylic Acid], the pIC50 was 9.00.
The result for `O=C(O)c1nn[nH]c1Oc1cccc(C#Cc2cccc(F)c2)c1` [Example 279, 5-(3-(2-(3-Fluorophenyl)ethynyl)phenoxy)-1H-1,2,3-triazole-4-carboxylic Acid] reads 8.70; that for `COc1ccc(C#Cc2ccc(Oc3[nH]nnc3C(=O)O)cc2)cc1` [Example 280, 5-(4-(2-(4-Methoxyphenyl)ethynyl)phenoxy)-1H-1,2,3-triazole-4-carboxylic Acid], 8.40.
Next, `COc1cccc(C#Cc2ccc(Oc3[nH]nnc3C(=O)O)cc2)c1` [Example 281, 5-(4-(2-(3-Methoxyphenyl)ethynyl)phenoxy)-1H-1,2,3-triazole-4-carboxylic Acid]: 8.52; `COc1cc(C#Cc2ccc(Oc3[nH]nnc3C(=O)O)cc2)ccn1` [Example 283, 5-(4-(2-(2-Methoxypyridin-4-yl)ethynyl)phenoxy)-1H-1,2,3-triazole-4-carboxylic Acid]: 8.52.
As to `COc1cc(C#Cc2cccc(Oc3[nH]nnc3C(=O)O)c2)ccn1` [Example 285, 5-(3-(2-(2-Methoxypyridin-4-yl)ethynyl)phenoxy)-1H-1,2,3-triazole-4-carboxylic Acid], the pIC50 is 8.52.
Regarding `COc1cccc(C#Cc2ccc(Oc3[nH]nnc3C(=O)O)cc2)c1` [Example 286, 5-(4-(2-(3-Methoxyphenyl)ethynyl)phenoxy)-1H-1,2,3-triazole-4-carboxylic Acid], the pIC50 was 8.70.
Next, `COc1cccc(C#Cc2cccc(Oc3[nH]nnc3C(=O)O)c2)c1` [Example 287, 5-(3-(2-(3-Methoxyphenyl)ethynyl)phenoxy)-1H-1,2,3-triazole-4-carboxylic Acid]: 8.40; `O=C(O)c1nn[nH]c1Oc1ccc(C#Cc2ccc(F)cc2)cc1` [Example 288, 5-(4-(2-(4-Fluorophenyl)ethynyl)phenoxy)-1H-1,2,3-triazole-4-carboxylic Acid]: 9.00.
As for `O=C(O)c1nn[nH]c1Oc1cccc(C#Cc2ccc(F)cc2)c1` [Example 289, 5-(3-(2-(4-Fluorophenyl)ethynyl)phenoxy)-1H-1,2,3-triazole-4-carboxylic Acid], the pIC50 was 9.00.
Turning to `O=C(O)c1nn[nH]c1Oc1ccc(C#Cc2ccc(Cl)cc2)cc1` [Example 290, 5-(4-(2-(4-Chlorophenyl)ethynyl)phenoxy)-1H-1,2,3-triazole-4-carboxylic Acid], the pIC50 is 9.40.
Next, `O=C(O)c1nn[nH]c1Oc1ccc(C#Cc2cccc(Cl)c2)cc1` [Example 291, 5-(4-(2-(3-Chlorophenyl)ethynyl)phenoxy)-1H-1,2,3-triazole-4-carboxylic Acid]: 9.52; `O=C(O)c1nn[nH]c1Oc1cccc(C#Cc2ccc(Cl)cc2)c1` [Example 292, 5-(3-(2-(4-Chlorophenyl)ethynyl)phenoxy)-1H-1,2,3-triazole-4-carboxylic Acid]: 8.70.
The result for `Cc1cccc(C#Cc2cccc(Oc3[nH]nnc3C(=O)O)c2)n1` [Example 294, 5-(3-(2-(6-Methylpyridin-2-yl)ethynyl)phenoxy)-1H-1,2,3-triazole-4-carboxylic Acid] reads 8.52; that for `Cc1cc(C#Cc2cccc(Oc3[nH]nnc3C(=O)O)c2)ccn1` [Example 296, 5-(3-(2-(2-Methylpyridin-4-yl)ethynyl)phenoxy)-1H-1,2,3-triazole-4-carboxylic Acid], 9.00.
In the case of `Cc1ccc(C#Cc2ccc(Oc3[nH]nnc3C(=O)O)cc2)cn1` [Example 297, 5-(4-(2-(6-Methylpyridin-3-yl)ethynyl)phenoxy)-1H-1,2,3-triazole-4-carboxylic Acid], the pIC50 was 8.52.
`Cc1cc(C#Cc2ccc(Oc3[nH]nnc3C(=O)O)cc2)ccn1` [Example 298, 5-(4-(2-(2-Methylpyridin-4-yl)ethynyl)phenoxy)-1H-1,2,3-triazole-4-carboxylic Acid]: the pIC50 is 8.52.
Next, `O=C(O)c1nn[nH]c1Oc1ccc(C#Cc2ccccn2)cc1` [Example 308, 5-(4-(2-(Pyridin-2-yl)ethynyl)phenoxy)-1H-1,2,3-triazole-4-carboxylic Acid]: 8.00; `O=C(O)c1nn[nH]c1Oc1ccc(C#Cc2cccnc2)cc1` [Example 309, 5-(4-(2-(Pyridin-3-yl)ethynyl)phenoxy)-1H-1,2,3-triazole-4-carboxylic Acid]: 8.52.
Next, `O=C(O)c1nn[nH]c1Oc1ccc(C#Cc2ccncc2)cc1` [Example 310, 5-(4-(2-(Pyridin-4-yl)ethynyl)phenoxy)-1H-1,2,3-triazole-4-carboxylic Acid]: 8.40; `O=C(O)c1nn[nH]c1Oc1cccc(C#Cc2ccccn2)c1` [Example 311, 5-(3-(2-(Pyridin-2-yl)ethynyl)phenoxy)-1H-1,2,3-triazole-4-carboxylic Acid]: 8.52.
The result for `O=C(O)c1nn[nH]c1Oc1cccc(C#Cc2ccncc2)c1` [Example 313, 5-(3-(2-(Pyridin-4-yl)ethynyl)phenoxy)-1H-1,2,3-triazole-4-carboxylic Acid] reads 8.52.
As for `Cn1ncc2c(C#Cc3ccc(Oc4[nH]nnc4C(=O)O)cc3)cccc21` [Example 314, 5-(4-(2-(1-Methyl-1H-indazol-4-yl)ethynyl)phenoxy)-1H-1,2,3-triazole-4-carboxylic Acid], the pIC50 is 8.52.
The result for `Cn1ncc2cc(C#Cc3ccc(Oc4[nH]nnc4C(=O)O)cc3)ccc21` [Example 316, 5-(4-(2-(1-Methyl-1H-indazol-5-yl)ethynyl)phenoxy)-1H-1,2,3-triazole-4-carboxylic Acid] reads 8.70; that for `Cn1ncc2cc(C#Cc3cccc(Oc4[nH]nnc4C(=O)O)c3)ccc21` [Example 317, 5-(3-(2-(1-Methyl-1H-indazol-5-yl)ethynyl)phenoxy)-1H-1,2,3-triazole-4-carboxylic Acid], 8.70; that for `Cn1ncc2ccc(C#Cc3ccc(Oc4[nH]nnc4C(=O)O)cc3)cc21` [Example 318, 5-(4-(2-(1-Methyl-1H-indazol-6-yl)ethynyl)phenoxy)-1H-1,2,3-triazole-4-carboxylic Acid], 8.70.
For the molecule `Cn1ncc2ccc(C#Cc3cccc(Oc4[nH]nnc4C(=O)O)c3)cc21` [Example 319, 5-(3-(2-(1-Methyl-1H-indazol-6-yl)ethynyl)phenoxy)-1H-1,2,3-triazole-4-carboxylic Acid], the pIC50 was 8.70.
The result for `O=C(O)c1nn[nH]c1Oc1cccc(C#Cc2cn[nH]c2)c1` [Example 320, 5-(3-(2-(1H-Pyrazol-4-yl)ethynyl)phenoxy)-1H-1,2,3-triazole-4-carboxylic Acid] reads 8.22.
The result for `Cn1nccc1C#Cc1ccc(Oc2[nH]nnc2C(=O)O)cc1` [Example 321, 5-(4-(2-(1-Methyl-1H-pyrazol-5-yl)ethynyl)phenoxy)-1H-1,2,3-triazole-4-carboxylic Acid] reads 8.30; that for `Cn1nccc1C#Cc1cccc(Oc2[nH]nnc2C(=O)O)c1` [Example 322, 5-(3-(2-(1-Methyl-1H-pyrazol-5-yl)ethynyl)phenoxy)-1H-1,2,3-triazole-4-carboxylic Acid], 8.40; that for `O=C(O)c1nn[nH]c1Oc1ccc(C#Cc2cccc3cn[nH]c23)cc1` [Example 323, 5-(4-(2-(1H-Indazol-7-yl)ethynyl)phenoxy)-1H-1,2,3-triazole-4-carboxylic Acid], 8.30.
The result for `Cn1ncc2cccc(C#Cc3ccc(Oc4[nH]nnc4C(=O)O)cc3)c21` [Example 325, 5-(4-(2-(1-Methyl-1H-indazol-7-yl)ethynyl)phenoxy)-1H-1,2,3-triazole-4-carboxylic Acid] reads 8.70; that for `Cn1ncc2cccc(C#Cc3cccc(Oc4[nH]nnc4C(=O)O)c3)c21` [Example 326, 5-(3-(2-(1-Methyl-1H-indazol-7-yl)ethynyl)phenoxy)-1H-1,2,3-triazole-4-carboxylic Acid], 8.70.
In the case of `O=C(O)c1nn[nH]c1Oc1ccc(C#Cc2cccc3[nH]ncc23)cc1` [Example 327, 5-(4-(2-(1H-Indazol-4-yl)ethynyl)phenoxy)-1H-1,2,3-triazole-4-carboxylic Acid], the pIC50 is 8.70.
The result for `O=C(O)c1nn[nH]c1Oc1cccc(C#Cc2cccc3[nH]ncc23)c1` [Example 328, 5-(3-(2-(1H-Indazol-4-yl)ethynyl)phenoxy)-1H-1,2,3-triazole-4-carboxylic Acid] reads 9.00.
Next, `O=C(O)c1nn[nH]c1Oc1ccc(C#Cc2ccc3cn[nH]c3c2)cc1` [Example 329, 5-(4-(2-(1H-Indazol-6-yl)ethynyl)phenoxy)-1H-1,2,3-triazole-4-carboxylic Acid]: 8.70.
